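48-hour exposure; five concentrations; linearly interpolated endpoints. GI50 marks 50% less growth.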 The source made the active and inactive calls. Rule as the data show it: active = GI50 up to about 1.1 µM and inactive = higher.
What was measured:
Experiment in all cases: DTP human tumour cell line panel, 48 h
[1] = test system: SF-295
[2] = test system: Hs-578T
[3] = test system: T47D
[4] = test system: UACC-257
[5] = test system: SK-OV-3
[6] = test system: HT-29
[7] = test system: MOLT-4
[8] = test system: MDA-MB-231
[9] = test system: RXF 393
[10] = test system: UACC-62
[11] = test system: ACHN
[12] = test system: HCT-15
[13] = test system: HOP-92
[14] = test system: SF-268
[15] = test system: SF-539
[16] = test system: MDA-MB-435
[17] = test system: 786-0
[18] = test system: RPMI-8226
[19] = test system: CAKI-1
[20] = test system: K562

| SMILES | GI50 [1] | GI50 [2] | GI50 [3] | GI50 [4] | GI50 [5] | GI50 [6] | GI50 [7] | GI50 [8] | GI50 [9] | GI50 [10] | GI50 [11] | GI50 [12] | GI50 [13] | GI50 [14] | GI50 [15] | GI50 [16] | GI50 [17] | GI50 [18] | GI50 [19] | GI50 [20] |
| --- | --- | --- | --- | --- | --- | --- | --- | --- | --- | --- | --- | --- | --- | --- | --- | --- | --- | --- | --- | --- |
| Cc1occc1C(=S)Nc1ccc(Cl)c(C(=O)OC(C)C2CC2)c1 (stereo not given) | 17.2 µM (inactive) | 27.7 µM (inactive) | 19.1 µM (inactive) | 30.3 µM (inactive) | 21.6 µM (inactive) | 20.6 µM (inactive) | 17.4 µM (inactive) | 17.4 µM (inactive) | 20.4 µM (inactive) | 22.8 µM (inactive) | 17.3 µM (inactive) | 18.5 µM | 23.5 µM (inactive) | 22.6 µM (inactive) | 22.3 µM (inactive) | 24.8 µM (inactive) | 19.3 µM (inactive) | 24.8 µM (inactive) | 18.7 µM (inactive) | – |
| C=C1C(=O)O[C@@H]2C[C@@H](C)[C@@H]3C=CC(=O)[C@@]3(C)[C@@H](OC(=O)CC(=O)O[C@H]3[C@@H]4C(=C)C(=O)O[C@@H]4C[C@@H](C)[C@@H]4C=CC(=O)[C@]43C)[C@H]12 | 0.115 µM (active) | 0.167 µM (active) | 0.179 µM (active) | 0.0252 µM (active) | 0.256 µM (active) | 0.0342 µM (active) | 0.0153 µM (active) | 0.0552 µM (active) | < 0.0112 µM (active) | 0.0306 µM (active) | 0.03 µM (active) | 0.0309 µM | 0.0296 µM (active) | 0.0582 µM (active) | 0.0252 µM (active) | 0.0356 µM (active) | 0.0199 µM (active) | 0.0124 µM (active) | 0.0238 µM (active) | 0.0154 µM (active) |
| O=C(NCCN1CCCC1)c1cn2c(ccc3sc4ccccc4c(=O)c32)n1 | 13.8 µM (inactive) | 17 µM (inactive) | 19.6 µM (inactive) | 17.7 µM (inactive) | 16.3 µM (inactive) | 3.18 µM (inactive) | 0.422 µM (active) | 2.16 µM (inactive) | 10.8 µM (inactive) | 17.1 µM (inactive) | 5.13 µM (inactive) | 10.9 µM | 15.2 µM (inactive) | 12.4 µM (inactive) | 14.9 µM (inactive) | 21 µM (inactive) | 1.41 µM (inactive) | 1.52 µM (inactive) | 11.4 µM (inactive) | 1.5 µM (inactive) |
| CN(C)CCCSc1nc2c(c(=N)n1-c1ccccc1)c(=S)n(-c1ccccc1)c(=S)n2-c1ccccc1 | 5.21 µM (inactive) | 3.12 µM (inactive) | 2.01 µM (inactive) | 1.77 µM (inactive) | 2.65 µM (inactive) | 2.17 µM (inactive) | 0.789 µM (active) | 1.61 µM (inactive) | 1.57 µM (inactive) | 1.78 µM (inactive) | 1.82 µM (inactive) | 1.61 µM | 1.8 µM (inactive) | 1.73 µM (inactive) | 2.52 µM (inactive) | 1.72 µM (inactive) | 1.27 µM (inactive) | 0.39 µM (active) | 1.77 µM (inactive) | 0.459 µM (active) |
| Cc1ccc(S(=O)(=O)NC2=NS(=O)(=O)c3cc(C)c(Cl)cc3S2)cc1 | 70.5 µM (inactive) | > 100 µM (inactive) | 70.1 µM (inactive) | > 100 µM (inactive) | > 100 µM (inactive) | > 100 µM (inactive) | 39.1 µM (inactive) | > 100 µM (inactive) | 76.7 µM (inactive) | > 100 µM (inactive) | > 100 µM (inactive) | > 100 µM | 24.4 µM (inactive) | > 100 µM (inactive) | 58.3 µM (inactive) | > 100 µM (inactive) | > 100 µM (inactive) | > 100 µM (inactive) | > 100 µM (inactive) | 34.3 µM (inactive) |
| CC1(C)N=C(N)N=C(N)N1c1ccc(CCCCc2ccc(Cl)cc2Cl)cc1 | 0.893 µM (active) | 4.67 µM (inactive) | 1.29 µM (inactive) | 0.659 µM (active) | 0.746 µM (active) | 0.546 µM (active) | 0.861 µM (active) | 2.07 µM (inactive) | 0.891 µM (active) | – | 4.57 µM (inactive) | 5.04 µM | 4.08 µM (inactive) | 0.382 µM (active) | 0.929 µM (active) | 0.598 µM (active) | 0.5 µM (active) | 1.17 µM (inactive) | 2.05 µM (inactive) | 42.2 µM (inactive) |
| Fc1cccc(F)c1C1SCC2=Nc3ccccc3CN21 (stereo not given) | 38.1 µM (inactive) | 25.4 µM (inactive) | 49.7 µM (inactive) | 60.3 µM (inactive) | 36.8 µM (inactive) | – | 74 µM (inactive) | > 100 µM (inactive) | 23.9 µM (inactive) | 41 µM (inactive) | 33.7 µM (inactive) | > 100 µM | 71.8 µM (inactive) | > 10 µM (inactive) | 26.7 µM (inactive) | > 100 µM (inactive) | 32.4 µM (inactive) | 56.1 µM (inactive) | > 100 µM (inactive) | 92.3 µM (inactive) |
| O=C(Nc1ccc(Cl)c(Cl)c1)N1N=C2c3ccccc3CCC2C1c1ccc(Cl)cc1 (stereo not given) | > 100 µM (inactive) | > 100 µM (inactive) | > 100 µM (inactive) | > 100 µM (inactive) | > 100 µM (inactive) | > 100 µM (inactive) | > 100 µM (inactive) | > 100 µM (inactive) | > 100 µM (inactive) | > 100 µM (inactive) | > 100 µM (inactive) | > 100 µM | > 100 µM (inactive) | > 100 µM (inactive) | > 100 µM (inactive) | > 100 µM (inactive) | > 100 µM (inactive) | > 100 µM (inactive) | > 100 µM (inactive) | > 100 µM (inactive) |
| CC1=NN(c2nc(N)nc(CCl)n2)C(C)(C)C1 | 25.7 µM (inactive) | 21 µM (inactive) | 45.6 µM (inactive) | 51.9 µM (inactive) | > 56 µM (inactive) | 29.9 µM (inactive) | 19.5 µM (inactive) | 29.3 µM (inactive) | > 56.8 µM (inactive) | 14.8 µM (inactive) | 10.3 µM (inactive) | 21 µM | 17.9 µM (inactive) | 20.6 µM (inactive) | 18.9 µM (inactive) | 34.8 µM (inactive) | 5.68 µM (inactive) | 25.6 µM (inactive) | 3.15 µM (inactive) | 27.2 µM (inactive) |
| Cn1nc2c(c1N)Cc1c(nn(C)c1N)-c1ccccc1-2 | > 100 µM (inactive) | > 100 µM (inactive) | > 100 µM (inactive) | > 100 µM (inactive) | > 100 µM (inactive) | > 100 µM (inactive) | > 100 µM (inactive) | > 100 µM (inactive) | > 100 µM (inactive) | > 100 µM (inactive) | > 100 µM (inactive) | > 100 µM | > 100 µM (inactive) | > 100 µM (inactive) | > 100 µM (inactive) | > 100 µM (inactive) | > 100 µM (inactive) | > 100 µM (inactive) | > 100 µM (inactive) | > 100 µM (inactive) |
| COc1cc(C2SCC(=O)N2c2ccc(Cl)c(Cl)c2)cc(OC)c1OC (stereo not given) | 29.8 µM (inactive) | > 100 µM (inactive) | 10.6 µM (inactive) | 32.6 µM (inactive) | 99.3 µM (inactive) | 23.1 µM (inactive) | 14.7 µM (inactive) | > 64.4 µM (inactive) | 18.5 µM (inactive) | 0.838 µM (active) | – | 20.6 µM | 80.9 µM (inactive) | > 100 µM (inactive) | 70.5 µM (inactive) | 11.1 µM (inactive) | > 55.6 µM (inactive) | 31.8 µM (inactive) | 27.5 µM (inactive) | 1.28 µM (inactive) |
| COC(=O)C[C@H](CCSC)NC(=O)C[C@H](CCSC)NC(=O)C[C@H](CCSC)NC(=O)OC(C)(C)C | 21.8 µM (inactive) | 30.3 µM (inactive) | 63.1 µM (inactive) | 68.5 µM (inactive) | 20 µM (inactive) | > 100 µM (inactive) | > 100 µM (inactive) | 38.5 µM (inactive) | 16.1 µM (inactive) | 27.9 µM (inactive) | 36.9 µM (inactive) | > 100 µM | 16.3 µM (inactive) | 20.4 µM (inactive) | 17.5 µM (inactive) | 39.5 µM (inactive) | 33.6 µM (inactive) | > 100 µM (inactive) | > 100 µM (inactive) | > 100 µM (inactive) |
| Nc1ncnc2c1ncn2CCCNO | > 100 µM (inactive) | > 100 µM (inactive) | > 100 µM (inactive) | > 100 µM (inactive) | > 100 µM (inactive) | > 100 µM (inactive) | > 100 µM (inactive) | > 100 µM (inactive) | > 100 µM (inactive) | > 100 µM (inactive) | > 100 µM (inactive) | > 100 µM | > 100 µM (inactive) | > 100 µM (inactive) | > 100 µM (inactive) | > 100 µM (inactive) | > 100 µM (inactive) | > 100 µM (inactive) | > 100 µM (inactive) | > 100 µM (inactive) |
| Nc1ccc(-c2nc3cc(F)ccc3s2)cc1Br | 23.5 µM (inactive) | 36.7 µM (inactive) | 0.038 µM (active) | > 100 µM (inactive) | > 59 µM (inactive) | 0.368 µM (active) | > 100 µM (inactive) | 8.95 µM (inactive) | 25.5 µM (inactive) | > 84.1 µM (inactive) | 0.621 µM (active) | 0.144 µM | 29.1 µM (inactive) | 42 µM (inactive) | > 41.5 µM (inactive) | > 100 µM (inactive) | 59 µM (inactive) | > 78.2 µM (inactive) | 3.99 µM (inactive) | – |

— ChEMBL document CHEMBL1201862, “PubChem BioAssay data set” (2004)
